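96-well plates; 48 h exposure; 5 concentrations. Endpoints by linear interpolation between flanking doses. Not reached: highest tested concentration assigned. Here, GI50 denotes the concentration required for 50% inhibition of growth. TGI marks complete inhibition of growth.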
Columns and labels:
Assay in all cases: growth of human tumour cells (NCI), 48 h
SW-620 colon = system: SW-620 colon
A549 NSCLC = system: A549 NSCLC
MCF7 breast = system: MCF7 breast
K-562 leukemia = system: K-562 leukemia
LOX IMVI melanoma = system: LOX IMVI melanoma
MDA-MB-231 breast = system: MDA-MB-231 breast
RXF 393 renal = system: RXF 393 renal
HCT-15 colon = system: HCT-15 colon
OVCAR-8 ovarian = system: OVCAR-8 ovarian
SK-OV-3 ovarian = system: SK-OV-3 ovarian
EKVX NSCLC = system: EKVX NSCLC
NCI-H522 lung = system: NCI-H522 lung
SK-MEL-5 melanoma = system: SK-MEL-5 melanoma
PC-3 prostate = system: PC-3 prostate
OVCAR-3 ovarian = system: OVCAR-3 ovarian
M14 melanoma = system: M14 melanoma
SF-295 CNS = system: SF-295 CNS
CAKI-1 renal = system: CAKI-1 renal
SR leukemia = system: SR leukemia
OVCAR-4 ovarian = system: OVCAR-4 ovarian
DU-145 prostate = system: DU-145 prostate
COLO 205 colon = system: COLO 205 colon
U251 CNS = system: U251 CNS
SN12C renal = system: SN12C renal
HCC-2998 colon = system: HCC-2998 colon
BT-549 breast = system: BT-549 breast
TK-10 renal = system: TK-10 renal
MALME-3M melanoma = system: MALME-3M melanoma
NCI-H23 lung = system: NCI-H23 lung
SNB-19 CNS = system: SNB-19 CNS
SK-MEL-28 melanoma = system: SK-MEL-28 melanoma
SF-539 CNS = system: SF-539 CNS
KM12 colon = system: KM12 colon
SF-268 CNS = system: SF-268 CNS
ACHN renal = system: ACHN renal
OVCAR-5 ovarian = system: OVCAR-5 ovarian
SNB-75 CNS = system: SNB-75 CNS
CCRF-CEM leukemia = system: CCRF-CEM leukemia
HCT-116 colon = system: HCT-116 colon
MOLT-4 leukemia = system: MOLT-4 leukemia
MDA-MB-435 = system: MDA-MB-435
HT29 colon = system: HT29 colon
UO-31 renal = system: UO-31 renal
HOP-62 NSCLC = system: HOP-62 NSCLC
UACC-257 melanoma = system: UACC-257 melanoma
T-47D breast = system: T-47D breast
NCI-H226 lung = system: NCI-H226 lung
HOP-92 NSCLC = system: HOP-92 NSCLC
RPMI-8226 leukemia = system: RPMI-8226 leukemia
HL-60(TB) leukemia = system: HL-60(TB) leukemia
IGROV1 ovarian = system: IGROV1 ovarian
UACC-62 melanoma = system: UACC-62 melanoma
NCI/ADR-RES ovarian = system: NCI/ADR-RES ovarian
NCI-H460 lung = system: NCI-H460 lung
786-0 renal = system: 786-0 renal
A498 renal = system: A498 renal
SK-MEL-2 melanoma = system: SK-MEL-2 melanoma
HS 578T breast = system: HS 578T breast

SMILES: CCOC(=O)c1c(CN2CCN(C)CC2)nc2ccc(Cl)cc2c1-c1ccccc1
- GI50 (SW-620 colon): 9.35 µM
- TGI (SW-620 colon): 21.6 µM
- GI50 (A549 NSCLC): 14.1 µM
- TGI (A549 NSCLC): 28.5 µM
- GI50 (MCF7 breast): 4.15 µM
- TGI (MCF7 breast): 16.6 µM
- GI50 (K-562 leukemia): 1.86 µM
- TGI (K-562 leukemia): 4.66 µM
- GI50 (LOX IMVI melanoma): 4.52 µM
- TGI (LOX IMVI melanoma): 16.1 µM
- GI50 (MDA-MB-231 breast): 7.16 µM
- TGI (MDA-MB-231 breast): 21.2 µM
- GI50 (RXF 393 renal): 5.33 µM
- TGI (RXF 393 renal): 15.4 µM
- GI50 (HCT-15 colon): 5.42 µM
- TGI (HCT-15 colon): 20.9 µM
- GI50 (OVCAR-8 ovarian): 15.2 µM
- TGI (OVCAR-8 ovarian): 29.6 µM
- GI50 (SK-OV-3 ovarian): 12.8 µM
- TGI (SK-OV-3 ovarian): 25.8 µM
- GI50 (EKVX NSCLC): 8.02 µM
- TGI (EKVX NSCLC): 25 µM
- GI50 (NCI-H522 lung): 11.7 µM
- TGI (NCI-H522 lung): 25.3 µM
- GI50 (SK-MEL-5 melanoma): 1.72 µM
- TGI (SK-MEL-5 melanoma): 3.18 µM
- GI50 (PC-3 prostate): 8.83 µM
- TGI (PC-3 prostate): 24.8 µM
- GI50 (OVCAR-3 ovarian): 6.5 µM
- TGI (OVCAR-3 ovarian): 19.6 µM
- GI50 (M14 melanoma): 1.91 µM
- TGI (M14 melanoma): 3.78 µM
- GI50 (SF-295 CNS): 3.27 µM
- TGI (SF-295 CNS): 9.95 µM
- GI50 (CAKI-1 renal): 2.95 µM
- TGI (CAKI-1 renal): 13.6 µM
- GI50 (SR leukemia): 1.93 µM
- TGI (SR leukemia): 4.78 µM
- GI50 (OVCAR-4 ovarian): 4.98 µM
- TGI (OVCAR-4 ovarian): 17.4 µM
- GI50 (DU-145 prostate): 13.7 µM
- TGI (DU-145 prostate): 26.7 µM
- GI50 (COLO 205 colon): 1.71 µM
- TGI (COLO 205 colon): 3.57 µM
- GI50 (U251 CNS): 8.26 µM
- TGI (U251 CNS): 23 µM
- GI50 (SN12C renal): 11.6 µM
- TGI (SN12C renal): 25.9 µM
- GI50 (HCC-2998 colon): 1.86 µM
- TGI (HCC-2998 colon): 4.4 µM
- GI50 (BT-549 breast): 7.1 µM
- TGI (BT-549 breast): 20.8 µM
- GI50 (TK-10 renal): 5.11 µM
- TGI (TK-10 renal): 13.6 µM
- GI50 (MALME-3M melanoma): 1.75 µM
- TGI (MALME-3M melanoma): 4.09 µM
- GI50 (NCI-H23 lung): 14.5 µM
- TGI (NCI-H23 lung): 30.1 µM
- GI50 (SNB-19 CNS): 12.7 µM
- TGI (SNB-19 CNS): 25.6 µM
- GI50 (SK-MEL-28 melanoma): 1.74 µM
- TGI (SK-MEL-28 melanoma): 3.19 µM
- GI50 (SF-539 CNS): 8.72 µM
- TGI (SF-539 CNS): 21 µM
- GI50 (KM12 colon): 6.76 µM
- TGI (KM12 colon): 19.1 µM
- GI50 (SF-268 CNS): 10.2 µM
- TGI (SF-268 CNS): 23.5 µM
- GI50 (ACHN renal): 12.2 µM
- TGI (ACHN renal): 25.5 µM
- GI50 (OVCAR-5 ovarian): 10.8 µM
- TGI (OVCAR-5 ovarian): 25 µM
- GI50 (SNB-75 CNS): 2.15 µM
- TGI (SNB-75 CNS): 8.95 µM
- GI50 (CCRF-CEM leukemia): 7.17 µM
- TGI (CCRF-CEM leukemia): 28.9 µM
- GI50 (HCT-116 colon): 6.51 µM
- TGI (HCT-116 colon): 19.1 µM
- GI50 (MOLT-4 leukemia): 2.92 µM
- TGI (MOLT-4 leukemia): 12.9 µM
- GI50 (MDA-MB-435): 2.71 µM
- TGI (MDA-MB-435): 7.87 µM
- GI50 (HT29 colon): 2.28 µM
- TGI (HT29 colon): 6.16 µM
- GI50 (UO-31 renal): 5.98 µM
- TGI (UO-31 renal): 19.5 µM
- GI50 (HOP-62 NSCLC): 11.2 µM
- TGI (HOP-62 NSCLC): 25 µM
- GI50 (UACC-257 melanoma): 2.03 µM
- TGI (UACC-257 melanoma): 3.98 µM
- GI50 (T-47D breast): 9.41 µM
- TGI (T-47D breast): 24.4 µM
- GI50 (NCI-H226 lung): 15.6 µM
- TGI (NCI-H226 lung): 34.9 µM
- GI50 (HOP-92 NSCLC): 6.64 µM
- TGI (HOP-92 NSCLC): 22.3 µM
- GI50 (RPMI-8226 leukemia): 2.98 µM
- TGI (RPMI-8226 leukemia): 12.7 µM
- GI50 (HL-60(TB) leukemia): 2.2 µM
- TGI (HL-60(TB) leukemia): 6.22 µM
- GI50 (IGROV1 ovarian): 7.14 µM
- TGI (IGROV1 ovarian): 19.9 µM
- GI50 (UACC-62 melanoma): 2.35 µM
- TGI (UACC-62 melanoma): 7.76 µM
- GI50 (NCI/ADR-RES ovarian): 5.35 µM
- TGI (NCI/ADR-RES ovarian): 14.5 µM
- GI50 (NCI-H460 lung): 3.9 µM
- TGI (NCI-H460 lung): 13 µM
- GI50 (786-0 renal): 7.05 µM
- TGI (786-0 renal): 18.8 µM
- GI50 (A498 renal): 4.75 µM
- TGI (A498 renal): 17.2 µM
- GI50 (SK-MEL-2 melanoma): 12.9 µM
- TGI (SK-MEL-2 melanoma): 26.2 µM
- GI50 (HS 578T breast): 4.69 µM
- TGI (HS 578T breast): 23.1 µM
